Consider 38 compounds from ChEMBL document CHEMBL1153932, “Hybrid alpha-bromoacryloylamido chalcones. Design, synthesis and biological evaluation” (Bioorg Med Chem Lett, 2009).

The subject of one assay is MOLT-4. The assay is described as follows: Antiproliferative activity against human MOLT4 cells after 48 hrs by Coulter counting analysis. The settings on record: MOLT-4, 48 h. It is filed as functional, cell-based.
For the next assay, the system named is FM3A. The assay is described as follows: Antiproliferative activity against mouse FM3A cells after 48 hrs by Coulter counting analysis. It is filed as functional, cell-based.
The subject of a further assay is L1210. The assay is described as follows: Antiproliferative activity against mouse L1210 cells after 48 hrs by Coulter counting analysis. It is filed as functional, cell-based. The settings on record: L1210, 48 h.
The next assay relates to HeLa. The assay is described as follows: Antiproliferative activity against human HeLa cells after 48 hrs by Coulter counting analysis. It is filed as functional, cell-based.
The subject of the next assay is CCRF-CEM. The assay is described as follows: Antiproliferative activity against human CEM cells after 48 hrs by Coulter counting analysis. It is filed as cell-based.

Some results are limits rather than exact numbers.

Regarding `C=C(Br)C(=O)Nc1ccc(/C=C/C(=O)c2cccc3ccccc23)cc1`, the IC50 with MOLT-4 turned out to be 2.1 µM; in the assay on FM3A it was 2.4 µM; with L1210, 1.1 µM; in the assay with HeLa, 2 µM; in the assay on CCRF-CEM it was 3.1 µM.
The matching figures for `C=C(Br)C(=O)Nc1ccc(C(=O)/C=C/c2ccc(OC)cc2OC)cc1`: 1.5 µM, 1.2 µM, 0.52 µM, 1.1 µM and 1.1 µM.
The matching figures for `CCOc1ccc(C(=O)/C=C/c2ccc(N)cc2)cc1`: 11 µM, 55 µM, 21 µM, 41 µM and 15 µM.
In the same order, the values of `C=C(Br)C(=O)Nc1ccc(/C=C/C(=O)c2ccc(C)cc2)cc1` are 1.7 µM, 2.1 µM, 1.9 µM, 2.1 µM and 1.8 µM.
Take `C=C(Br)C(=O)Nc1ccc(/C=C/C(=O)c2ccc(F)cc2)cc1`: the IC50 amounted to 0.66 µM in the assay with MOLT-4; 1.2 µM with FM3A; 1.6 µM in the assay on L1210; 1.4 µM with HeLa; 1.1 µM in the assay with CCRF-CEM.
On to `COc1ccc(/C=C/C(=O)c2ccc(N)cc2)c(OC)c1OC`, for which the IC50 with MOLT-4 was determined as 10 µM; with FM3A, 29 µM; in the assay with L1210 it was 25 µM; in the assay with HeLa, 8.2 µM; in the assay with CCRF-CEM, 9.7 µM.
`Nc1ccc(/C=C/C(=O)c2cccs2)cc1`: the IC50 came to 13 µM in the assay on MOLT-4; 123 µM in the assay with FM3A; 87 µM with L1210; 15 µM in the assay with HeLa; 27 µM in the assay with CCRF-CEM.
The matching figures for `C=C(Br)C(=O)Nc1ccc(/C=C/C(=O)c2cccc(OC)c2)cc1`: 0.85 µM, 2.7 µM, 2.1 µM, 0.7 µM and 2.3 µM.
Take `COc1ccc(C(=O)/C=C/c2ccc(N)cc2)cc1`: the IC50 in the assay with MOLT-4 worked out at 19 µM; with FM3A, 282 µM; in the assay on L1210 it was 160 µM; in the assay with HeLa, 98 µM; in the assay on CCRF-CEM it was 37 µM.
In the case of `COc1cc(/C=C/C(=O)c2ccc(N)cc2)cc(OC)c1`, the IC50 in the assay with MOLT-4 was 7.5 µM; in the assay on FM3A, 12 µM; in the assay on L1210, 6 µM; with HeLa, 7.9 µM; in the assay on CCRF-CEM, 5.7 µM.
Consider `C=C(Br)C(=O)Nc1ccc(/C=C/C(=O)c2ccc(I)cc2)cc1`, for which the IC50 in the assay on MOLT-4 is 2.8 µM; in the assay on FM3A, 8.3 µM; with L1210 it was 3.4 µM; with HeLa, 7.7 µM; in the assay with CCRF-CEM, 4 µM.
For `C=C(Br)C(=O)O`, the IC50 with L1210 is more than 120 µM.
In the case of `C=C(Br)C(=O)Nc1ccc(/C=C/C(=O)c2ccc(Cl)c(Cl)c2)cc1`, the IC50 in the assay with MOLT-4 was found to be 1.8 µM; with FM3A, 3.2 µM; in the assay with L1210, 2.1 µM; with HeLa, 3.2 µM; in the assay on CCRF-CEM it was 1.7 µM.
Regarding `Nc1ccc(/C=C/C(=O)c2ccc(Cl)c(Cl)c2)cc1`, the IC50 worked out at 13 µM with MOLT-4; 33 µM with FM3A; 26 µM in the assay with L1210; 31 µM in the assay with HeLa; 15 µM in the assay with CCRF-CEM.
For the compound `C=C(Br)C(=O)Nc1ccc(C(=O)/C=C/c2cc(OC)cc(OC)c2)cc1`, the IC50 turned out to be 1.5 µM in the assay on MOLT-4; 2 µM with FM3A; 2.7 µM in the assay on L1210; 1.7 µM in the assay with HeLa; 2.2 µM with CCRF-CEM.
The matching figures for `Nc1ccc(/C=C/C(=O)c2ccc(Cl)cc2)cc1`: 7.8 µM, 178 µM, 111 µM, 43 µM and 21 µM.
In the same order, the values of `Cc1ccc(C(=O)/C=C/c2ccc(N)cc2)cc1` are 12 µM, 107 µM, 49 µM, 40 µM and 31 µM.
The matching figures for `C=C(Br)C(=O)Nc1ccc(/C=C/C(=O)c2ccccc2)cc1`: 3.1 µM, 3.9 µM, 5 µM, 3.9 µM and 4 µM.
With `Nc1ccc(/C=C/C(=O)c2cccc3ccccc23)cc1`, the IC50 in the assay on MOLT-4 amounted to 12 µM; in the assay with FM3A, 41 µM; with L1210, 32 µM; with HeLa, 18 µM; in the assay on CCRF-CEM it was 22 µM.
The matching figures for `COc1cc(/C=C/C(=O)c2ccc(N)cc2)cc(OC)c1OC`: 5.6 µM, 8.8 µM, 7.8 µM, 6.9 µM and 2.3 µM.
In the same order, the values of `Nc1ccc(/C=C/C(=O)c2ccccc2)cc1` are 10 µM, 146 µM, 88 µM, 36 µM and 34 µM.
Regarding `COc1ccc(/C=C/C(=O)c2ccc(N)cc2)c(OC)c1`, the 50% inhibitory concentration (IC50) turned out to be 20 µM with MOLT-4; 43 µM in the assay on FM3A; 34 µM with L1210; 22 µM in the assay on HeLa; 18 µM with CCRF-CEM.
Take `COc1ccc(/C=C/C(=O)c2ccc(N)cc2)cc1OC`: the IC50 in the assay with MOLT-4 was determined as 8.6 µM; with FM3A, 35 µM; with L1210, 25 µM; in the assay with HeLa it was 7.8 µM; in the assay with CCRF-CEM it was 9.3 µM.
In the same order, the values of `COc1ccc(/C=C/C(=O)c2ccc(N)cc2)cc1` are 8.6 µM, 35 µM, 18 µM, 8.7 µM and 14 µM.
With `C=C(Br)C(=O)Nc1ccc(/C=C/C(=O)c2ccc(OC)cc2)cc1`, the IC50 in the assay on MOLT-4 came to 1.3 µM; in the assay with FM3A, 1.2 µM; in the assay with L1210, 0.98 µM; in the assay on HeLa, 1.4 µM; with CCRF-CEM, 1.4 µM.
As for `COc1cc(C(=O)/C=C/c2ccc(N)cc2)cc(OC)c1OC`, the IC50 with MOLT-4 came to 1.5 µM; in the assay with FM3A, 36 µM; in the assay on L1210, 14 µM; in the assay on HeLa it was 1.9 µM; with CCRF-CEM it was 2.5 µM.
For the compound `Nc1ccc(/C=C/C(=O)c2ccc(I)cc2)cc1`, the IC50 in the assay with MOLT-4 amounted to 7.5 µM; in the assay with FM3A it was 110 µM; with L1210 it was 50 µM; in the assay with HeLa it was 58 µM; with CCRF-CEM, 16 µM.
The matching figures for `C=C(Br)C(=O)Nc1ccc(C(=O)/C=C/c2ccc(OC)c(OC)c2)cc1`: 1.8 µM, 1.2 µM, 1.3 µM, 0.77 µM and 1.6 µM.
Turning to `C=C(Br)C(=O)Nc1ccc(/C=C/C(=O)c2ccc(Cl)cc2)cc1`, the IC50 is 0.81 µM in the assay on MOLT-4; 1.3 µM with FM3A; 1.1 µM in the assay with L1210; 1.6 µM with HeLa; 0.95 µM with CCRF-CEM.
The matching figures for `COc1cccc(C(=O)/C=C/c2ccc(N)cc2)c1`: 20 µM, 43 µM, 38 µM, 33 µM and 26 µM.
The matching figures for `C=C(Br)C(=O)Nc1ccc(/C=C/C(=O)c2cc(OC)c(OC)c(OC)c2)cc1`: 0.85 µM, 0.95 µM, 0.91 µM, 1.1 µM and 1.1 µM.
Take `CN(C)c1ccc(/C=C/C(=O)c2ccc(N)cc2)cc1`: the half-inhibitory concentration (IC50) in the assay on MOLT-4 was found to be 9.9 µM; in the assay with FM3A it was 96 µM; in the assay on L1210, 67 µM; with HeLa, 28 µM; in the assay on CCRF-CEM it was 20 µM.
The matching figures for `Nc1ccc(C(=O)/C=C/c2ccccc2)cc1`: 7.9 µM, 34 µM, 14 µM, 7.7 µM and 8.5 µM.
With `Nc1ccc(/C=C/C(=O)c2ccc(F)cc2)cc1`, the IC50 in the assay with MOLT-4 came out at 12 µM; in the assay on FM3A, 185 µM; in the assay on L1210, 123 µM; with HeLa, 40 µM; with CCRF-CEM, 39 µM.
The matching figures for `COc1cccc(/C=C/C(=O)c2ccc(N)cc2)c1`: 21 µM, 45 µM, 22 µM, 19 µM and 23 µM.
Turning to `Nc1ccc(/C=C/C(=O)c2ccc(Br)cc2)cc1`, the IC50 amounted to 10 µM in the assay on MOLT-4; 120 µM in the assay with FM3A; 90 µM in the assay with L1210; 49 µM with HeLa; 14 µM in the assay on CCRF-CEM.
In the same order, the values of `C=C(Br)C(=O)Nc1ccc(C(=O)/C=C/c2cccc(OC)c2)cc1` are 1.1 µM, 1.8 µM, 1.1 µM, 0.5 µM and 1.8 µM.
With `C=C(Br)C(=O)Nc1ccc(C(=O)/C=C/c2cc(OC)c(OC)c(OC)c2)cc1`, the IC50 stood at 0.28 µM in the assay with MOLT-4; 1.8 µM with FM3A; 1.5 µM in the assay on L1210; 0.42 µM in the assay with HeLa; 0.33 µM in the assay with CCRF-CEM.

What is called IC50 is the concentration that gives 50% inhibition. A low value points to greater potency.
